Experimental data taken from patent publication US4070401A, “Method for the preparation of a halogenated aromatic amine” (Mitsui Toatsu Chemicals Inc., priority 1972, dated 1978).

Experiment: Dissociation constant pKb of the amine additive (Table 1)
Type: physicochemical
Conditions: measured at 25° C
Description: The inventors have conducted an extensive study on suppression or inhibition of halogenation reaction which would occur during preparation of a halogenated aromatic amine. As a result, the inventors discovered that when a halogenated aromatic nitro compound is hydrogenated in the presence of a predetermined amount of a platinum catalyst together with an amine selected from the group consisting of an alkylmonoamine, an alicyclic amine and a polyalkylenepolyamine, the dehalogenation may be suppressed to a minimum. The present invention has been completed on the basis of this discovery. The alkylmonoamine, alicyclic amine and polyalkylenepolyamine have common properties that they are an organic nitrogen-containing base having a dissociation constant pKb lower than 4.2. The dissociation constant herein described means that which is defined according to the dissociation equilibrium of the usual acid or base, i.e., when an organic nitrogen-containing base is expressed by RN, the dissociation equilibrium of RN is expressed by a formula
RN + H2 O .revreaction. RNH^+ + OH^-
and the dissociation constant is defined as follows [formula] where [ ]means activity.
Though the dissociation constant pKb is generally more or less varied with temperature, the pKb value is measured at 25° C herein.

| SMILES | Dissociation Constant pKb |
| --- | --- |
| CN [methylamine] | 3.4 |
| CC(C)N [isopropylamine] | 3.4 |
